Laboratory results from patent US11083709B2, “Compounds, compositions, and methods of increasing CFTR activity” (Proteostasis Therapeutics, Inc., priority 2015, dated 2021).

The compounds below were run against T1, ΔF508-CFTR (Homo sapiens, UniProt P13569, DEL508-508) (assay: hBE equivalent current (Ieq) assay, primary lung epithelial cells homozygous for ΔF508). Conditions: compound at 10 uM and VX-809 at 1 uM, relative to VX-809 (1 uM); 24 h treatment.
T1 construct: primary lung epithelial cells (hBEs) homozygous for the Cystic Fibrosis-causing ΔF508 mutation; endogenous in cells; host or cells: primary lung epithelial cells (hBEs) homozygous for ΔF508
T1 sequence (P13569 with tags, fused parts or gaps DEL508-508): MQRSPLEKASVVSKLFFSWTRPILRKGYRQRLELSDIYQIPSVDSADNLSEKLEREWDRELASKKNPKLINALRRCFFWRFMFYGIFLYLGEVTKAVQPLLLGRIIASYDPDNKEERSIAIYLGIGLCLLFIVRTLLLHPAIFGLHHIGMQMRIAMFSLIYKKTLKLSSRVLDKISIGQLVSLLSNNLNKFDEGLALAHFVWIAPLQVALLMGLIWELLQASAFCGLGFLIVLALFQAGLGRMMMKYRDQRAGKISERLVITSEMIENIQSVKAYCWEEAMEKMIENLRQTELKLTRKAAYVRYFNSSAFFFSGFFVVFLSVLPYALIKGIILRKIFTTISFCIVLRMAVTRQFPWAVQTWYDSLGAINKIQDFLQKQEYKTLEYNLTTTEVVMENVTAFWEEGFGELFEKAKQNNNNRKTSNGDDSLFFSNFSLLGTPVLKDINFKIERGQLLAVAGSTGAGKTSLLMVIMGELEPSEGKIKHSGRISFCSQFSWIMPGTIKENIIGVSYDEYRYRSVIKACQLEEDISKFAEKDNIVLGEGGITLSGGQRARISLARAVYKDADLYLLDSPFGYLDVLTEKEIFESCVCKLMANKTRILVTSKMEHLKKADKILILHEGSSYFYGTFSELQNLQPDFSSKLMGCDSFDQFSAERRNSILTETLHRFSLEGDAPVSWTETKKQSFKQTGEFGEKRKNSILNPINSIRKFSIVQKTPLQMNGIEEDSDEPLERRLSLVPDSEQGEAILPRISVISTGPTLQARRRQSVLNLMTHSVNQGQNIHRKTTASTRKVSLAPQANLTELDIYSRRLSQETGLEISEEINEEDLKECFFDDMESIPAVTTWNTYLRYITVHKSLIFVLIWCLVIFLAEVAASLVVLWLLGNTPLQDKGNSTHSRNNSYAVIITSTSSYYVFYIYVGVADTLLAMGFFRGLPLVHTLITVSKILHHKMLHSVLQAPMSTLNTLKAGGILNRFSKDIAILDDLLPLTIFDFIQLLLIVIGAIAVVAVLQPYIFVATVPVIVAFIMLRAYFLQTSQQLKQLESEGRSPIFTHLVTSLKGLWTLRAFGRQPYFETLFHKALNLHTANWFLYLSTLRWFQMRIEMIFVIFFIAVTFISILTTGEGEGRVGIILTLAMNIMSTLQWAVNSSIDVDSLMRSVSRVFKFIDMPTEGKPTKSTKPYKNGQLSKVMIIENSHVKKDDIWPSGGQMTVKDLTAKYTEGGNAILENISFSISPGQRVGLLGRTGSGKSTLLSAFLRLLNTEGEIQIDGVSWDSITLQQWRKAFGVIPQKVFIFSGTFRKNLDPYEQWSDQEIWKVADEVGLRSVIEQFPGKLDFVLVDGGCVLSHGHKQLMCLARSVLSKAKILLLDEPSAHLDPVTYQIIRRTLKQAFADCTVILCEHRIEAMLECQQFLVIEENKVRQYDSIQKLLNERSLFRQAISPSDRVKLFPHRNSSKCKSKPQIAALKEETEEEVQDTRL
Format: cell-based
Experimental: Primary lung epithelial cells homozygous for the Cystic Fibrosis-causing ΔF508 mutation were differentiated for a minimum of 4 weeks in an air-liquid interface on Costar 24 well HTS filter plates prior to the equivalent current (Ieq) measurements. Cells were apically mucus-washed for 30 minutes 24h prior to treatment with compounds. The basolateral media was removed and replaced with media containing the compound of interest diluted to its final concentration from DMSO stocks. Treated cells were incubated at 37° C. and 5% CO2 for 24 hours. At the end of the treatment period, the media was changed to the Ieq experimental solution for 30 minutes before the experiment and plates are maintained in a CO2-free incubator during this period. The plates containing the cells were then placed in pre-warmed heating blocks at 36° C.±0.5 for 15 minutes before measurements are taken. The transepithelial voltage (VT) and conductance (GT) were measured using a custom 24 channel current clamp (TECC-24) with 24 well electrode manifold. The Ieq assay measurements were made following additions with standardized time periods: • 1. The baseline VT and GT values were measured for approximately 20 minutes. • 2. Benzamil was added to block ENaC for 15 minutes. • 3. Forskolin plus VX-770 (ivacaftor) were added to maximally activate ΔF508-CFTR for 27 minutes. • 4. Bumetanide was added to inhibit the NaK2Cl cotransporter and shut-off secretion of chloride.
The activity data captured was the area under the curve (AUC) for the traces of the equivalent chloride current. The AUC was collected from the time of the forskolin/VX-770 addition until the inhibition by bumetanide addition. Correction in response to compound treatment was scored as the increase in the AUC for compound-treated samples over that of vehicle-treated samples.
The results are shown below in Table 2. ++ indicates activity ≥25% run at 10 uM of VX-809 at 1 uM, + indicates activity 10 to <25% run at 10 uM of VX-809 at 1 uM, ** indicates activity ≥200% of VX-809 (1 uM) with compound at 10 uM and VX-809 at 1 uM; * indicates activity 100-200% of VX-809 (1 uM) with compound at 10 uM and VX-809 at 1 uM. ^## indicates activity ≥200% of VX-809 (3 uM) with compound at 10 uM and VX-809 at 3 uM; ^# indicates activity 100-200% of VX-809 (3 uM) with compound at 10 uM and VX-809 at 3 uM.
In the case of C[C@@H](O)c1nnc(CC2CC(NC(=O)c3cc(-c4ccccc4)no3)C2)s1 (stereo partly drawn) [Example 41, 3-Phenyl-N-[(1s,3s)-3-([5-[(1R)-1-hydroxyethyl]-1,3,4-thiadiazol-2-yl]methyl)cyclobutyl]-1,2-oxazole-5-carboxamide], the “leq: activity of compound with VX-809, % of VX-809 (AUC of equivalent chloride current)” value is reported as “** (** indicates activity ≥200% of VX-809 (1 uM) with compound at 10 uM and VX-809 at 1 uM)”. In the case of C[C@@H](O)c1nnc(CC2CC(NC(=O)c3cc(-c4ccccc4)no3)C2)s1 (stereo partly drawn) [Example 42, 3-Phenyl-N-[(1r,3r)-3-([5-[(1R)-1-hydroxyethyl]-1,3,4-thiadiazol-2-yl]methyl)cyclobutyl]-1,2-oxazole-5-carboxamide], the “leq: activity of compound with VX-809, % of VX-809 (AUC of equivalent chloride current)” value is reported as “* (* indicates activity 100-200% of VX-809 (1 uM) with compound at 10 uM and VX-809 at 1 uM)”. In the case of C[C@@H](O)c1nnc(CC2CC(NC(=O)c3cc(-c4ccc(F)cc4)no3)C2)s1 (stereo partly drawn) [Example 43, 3-(4-Fluorophenyl)-N-[(1s,3s)-3-([5-[(1R)-1-hydroxyethyl]-1,3,4-thiadiazol-2-yl]methyl)cyclobutyl]-1,2-oxazole-5-carboxamide], the “leq: activity of compound with VX-809, % of VX-809 (AUC of equivalent chloride current)” value is reported as “** (** indicates activity ≥200% of VX-809 (1 uM) with compound at 10 uM and VX-809 at 1 uM)”. For C[C@@H](O)c1nnc(CC2CC(NC(=O)c3cc(-c4ccc(F)cc4)no3)C2)s1 (stereo partly drawn) [Example 44, 3-(4-Fluorophenyl)-N-[(1r,3r)-3-([5-[(1R)-1-hydroxyethyl]-1,3,4-thiadiazol-2-yl]methyl)cyclobutyl]-1,2-oxazole-5-carboxamide], the “leq: activity of compound with VX-809, % of VX-809 (AUC of equivalent chloride current)” value was “** (** indicates activity ≥200% of VX-809 (1 uM) with compound at 10 uM and VX-809 at 1 uM)”. With C[C@@H](O)c1nnc(C[C@H]2C[C@@H](NC(=O)c3cc(-c4cccs4)no3)C2)o1 [Example 45, N-[(1s,3s)-3-([5-[(1R)-1-Hydroxyethyl]-1,3,4-oxadiazol-2-yl]methyl)cyclobutyl]-3-(thiophen-2-yl)-1,2-oxazole-5-carboxamide] the “leq: activity of compound with VX-809, % of VX-809 (AUC of equivalent chloride current)” value was “* (* indicates activity 100-200% of VX-809 (1 uM) with compound at 10 uM and VX-809 at 1 uM)”. C[C@@H](O)c1nnc(C[C@H]2C[C@H](NC(=O)c3cc(-c4cccs4)no3)C2)o1 [Example 46, N-[(1r,3r)-3-([5-[(1R)-1-Hydroxyethyl]-1,3,4-oxadiazol-2-yl]methyl)cyclobutyl]-3-(thiophen-2-yl)-1,2-oxazole-5-carboxamide] was tested, and the “leq: activity of compound with VX-809, % of VX-809 (AUC of equivalent chloride current)” value was “* (* indicates activity 100-200% of VX-809 (1 uM) with compound at 10 uM and VX-809 at 1 uM)”. For C[C@@H](O)c1nnc([C@H]2C[C@H](NC(=O)c3onc(-c4ccccc4)c3F)C2)o1 [Example 50, 4-Fluoro-3-phenyl-N-[(1r,3r)-3-[5-[(1R)-1-hydroxyethyl]-1,3,4-oxadiazol-2-yl]cyclobutyl]-1,2-oxazole-5-carboxamide], the “leq: activity of compound with VX-809, % of VX-809 (AUC of equivalent chloride current)” value was “* (* indicates activity 100-200% of VX-809 (1 uM) with compound at 10 uM and VX-809 at 1 uM)”. C[C@H](O)c1cnnn1C[C@H]1C[C@@H](NC(=O)c2cc(-c3ccccc3)no2)C1 [Example 57, 3-Phenyl-N-[(1s,3s)-3-([5-[(1S)-1-hydroxyethyl]-1H-1,2,3-triazol-1-yl]methyl)cyclobutyl]-1,2-oxazole-5-carboxamide] was tested, and the “leq: activity of compound with VX-809, % of VX-809 (AUC of equivalent chloride current)” value was “** (** indicates activity ≥200% of VX-809 (1 uM) with compound at 10 uM and VX-809 at 1 uM)”. C[C@H](O)c1cn(C[C@H]2C[C@@H](NC(=O)c3cc(-c4ccccc4)no3)C2)nn1 [Example 58, 3-Phenyl-N-[(1s,3s)-3-([4-[(1S)-1-hydroxyethyl]-1H-1,2,3-triazol-1-yl]methyl)cyclobutyl]-1,2-oxazole-5-carboxamide] was tested, and the “leq: activity of compound with VX-809, % of VX-809 (AUC of equivalent chloride current)” value was “* (* indicates activity 100-200% of VX-809 (1 uM) with compound at 10 uM and VX-809 at 1 uM)”.

What follows are compounds tested against T1, ΔF508-CFTR (assay: Ussing measurements, hBEs homozygous for ΔF508). Conditions: compound at 10 uM and VX-809 at 3 uM, relative to VX-809 (3 uM); 24 h treatment.
Format: cell-based
Experimental: As discussed above, Ussing measurements can be used to measure CFTR activity. In this example, primary lung epithelial cells (hBEs) homozygous for the Cystic Fibrosis-causing ΔF508 mutation were differentiated for a minimum of 4 weeks in an air-liquid interface on SnapWell filter plates prior to the Ussing measurements. Cells were apically mucus-washed for 30 minutes prior to treatment with compounds. The basolateral media was removed and replaced with media containing the compound of interest diluted to its final concentration from DMSO stocks. Treated cells were incubated at 37° C. and 5% CO2 for 24 hours. […] The short-circuit current was measured in voltage clamp-mode (Vhold=0 mV), and the entire assay was conducted at a temperature of 36° C.-36.5° C. Once the voltages stabilized, the chambers were clamped, and data was recorded by pulse readings every 5 seconds. Following baseline current stabilization, the following additions were applied and the changes in current and resistance of the cells was monitored: • 1. […]
The inhibitable current (that current that is blocked by CFTRinh-172) is measured as the specific activity of the ΔF508-CFTR channel, and increases in response to compound in this activity over that observed in vehicle-treated samples are identified as the correction of ΔF508-CFTR function imparted by the compound tested. […]
In the case of O=C(N[C@H]1C[C@H](n2nncc2CO)C1)c1cc(-c2ccccc2)no1 [Example 5, N-(trans-3-(5-(hydroxymethyl)-1H-1,2,3-triazol-1-yl)cyclobutyl)-3-phenylisoxazole-5-carboxamide], the “Ussing: activity of compound with VX-809, % of VX-809” value is reported as “## (## indicates activity ≥200% of VX-809 (3 uM) with compound at 10 uM and VX-809 at 3 uM)”.

These compounds were tested on CFTR in R117H/F508del HBEs (assay: Ussing measurements, R117H/F508del HBEs). Conditions: Ussing; Compound A 10 uM, ivacaftor 1 uM.
Format: cell-based, human
Experimental: (§1) As discussed above, Ussing measurements was used to measure CFTR activity. In this method, primary lung epithelial cells (hBEs) with a Cystic Fibrosis-causing class III mutation were differentiated for a minimum of 4 weeks in an air-liquid interface on SnapWell™ filter plates prior to the Ussing measurements. Cells were apically mucus-washed for 30 minutes prior to treatment with compounds. The basolateral media was removed and replaced with media containing the compound of interest diluted to its final concentration from DMSO stocks. Treated cells were incubated at 37° C. and 5% CO2 for 24 hours. At the end of the treatment period, the cells on filters were transferred to the Ussing chamber and equilibrated for 30 minutes. The short-circuit current was measured in voltage clamp-mode (Vhold=0 mV), and the entire assay was conducted at a temperature of 36° C.-36.5° C. Once the voltages stabilized, the chambers were clamped, and data was recorded by pulse readings every 5 seconds. Following baseline current stabilization, the following additions were applied and the changes in current and resistance of the cells was monitored: • 1. Benzamil to the apical chamber to inhibit ENaC sodium channel. • 2. Forskolin to both chambers to activate ΔF508-CFTR by phosphorylation. • 3. Ivacaftor or Genistein to the apical chamber to potentiate ΔF508-CFTR channel opening. • 4. CFTRinh-172 to the apical chamber to inhibit ΔF508-CFTR Cl-conductance.
(§2) The forskolin-sensitive current and inhibitable current (that potentiated current that is blocked by CFTRinh-172) were measured as the specific activity of the ΔF508-CFTR channel, and increase in response to compound in this activity over that observed in vehicle-treated samples were identified as the correction of ΔF508-CFTR function imparted by the compound tested.
(§3) The results are shown below in Tables 5 and 6. Compound A is 10 uM and VX-809 is 3 uM and ivacaftor is 1 uM.
CC(C)(C)c1cc(C(C)(C)C)c(NC(=O)c2c[nH]c3ccccc3c2=O)cc1O [ivacaftor, reference compound] was tested, and the “Activity in R117H/F508del HBEs (relative to ivacaftor activity)” value was 100%.

The compounds below were run on CFTR in G551D/F508del HBEs (assay: Ussing measurements, G551D/F508del HBEs). Conditions: Ussing; Compound A 10 uM, ivacaftor 1 uM.
Format: cell-based, human
Experimental: as §1, §2, §3
CC(C)(C)c1cc(C(C)(C)C)c(NC(=O)c2c[nH]c3ccccc3c2=O)cc1O [ivacaftor, reference compound] was tested, and the “Activity in G551D/F508del HBEs (relative to ivacaftor activity)” value was 100%.
